Experiment: In vitro solubilization kinetics in buffer solution
Assay type: physicochemical
Details: buffer pH 7.4, 37° C., HPLC
Method: Solubilization Kinetics of the Double Microemulsions of the Invention
The “in vitro” solubilization kinetics was determined in buffer solution (pH 7.4, 37° C.); sample of the double microemulsion under testing is dispersed in tubes filled with 50 ml of buffer solution and placed over a thermostated shaking plate; at predetermined time intervals samples of the solution were filtered and then ultra-centrifuged; drug concentration was determined by HPLC, data are reported in Table 2.

Drug concentration (0.5 hr): 50 ng/mL
Drug concentration (1 hr): 100 ng/mL
Drug concentration (3 hr): 300 ng/mL
Drug concentration (8 hr): 500 ng/mL
Drug concentration (24 hr): 1500 ng/mL
Compound: CCC(C)n1ncn(-c2ccc(N3CCN(c4ccc(OCC5COC(Cn6cncn6)(c6ccc(Cl)cc6Cl)O5)cc4)CC3)cc2)c1=O (centres unmarked) [Itraconazole pure dispersion, Itraconazole]

— patent publication US20090202596A1, “PHARMACEUTICAL COMPOSITIONS WITH BIOLOGICAL BARRIERS PERMEATION ENHANCING PROPERTIES” (FARMATRON LIMITED, priority 2006, published 2009)
